From EP4786459A1, “BENZENE RING-CONTAINING COMPOUND HAVING ANALGESIC EFFECT, PREPARATION METHOD THEREFOR, AND USE THEREOF” (West China Hospital, Sichuan University, priority 2023, dated 2025)

Tested on: not listed separately
Assay: Loss of tail withdrawal reflex (LOTWR) in rats, single intravenous injection, dose escalation: potent analgesic effect and severe adverse reactions
Format: in vivo, SD rats
Settings: rat, in vivo, single intravenous injection, minimum dose resulting in serious adverse reactions / minimum effective dose, class symbol, read-out: The safety therapeutic index
Procedure: (§1) Using the loss of tail withdrawal reflex (LOTWR) in rats as an indicator, the potent analgesic effect of the compounds according to the present invention was evaluated.
(§2) 1.1 Experimental animals: Adult male SD rats weighing between 220-300 g were selected for the experiment. The rats were housed in sawdust-bedded cages with a temperature of 25±1°C, humidity ranging from 40% to 60%, and a 12-hour light/12-hour dark cycle. Each cage contained no more than 5 rats, with free access to water and food.
(§3) • (1) The compound of the present invention, along with the positive control drug remifentanil and the negative control (vehicle), were administered in fixed volumes. A dose escalation approach was employed to determine the minimum effective dose at which the compound of the present invention produces potent analgesic effects, as well as the minimum dose at which severe adverse reactions first appear. • (2) LOTWR lasting for 30 seconds was used as the criterion for generating potent analgesic effects. During the experiment, drugs were administered via the tail vein of rats, with a dosage volume of 0.6 mL per rat and a dosage rate of 0.02 mL/s. Subsequently, an alligator clip was applied at a distance of 1 cm from the base of the rat's tail, clamping once longitudinally and once transversely before being left in place. Meanwhile, the distal end of the alligator clip was continuously oscillated (30 times/min) to continuously generate stimulation. […] When all results were "no LOTWR" after 10 minutes of testing (5 trials), the test was stopped and recorded as "ineffective." • (3) All compounds would undergo a dose escalation for efficacy evaluation, starting from 1 mg/kg (due to the high potency of remifentanil, the lowest dose was set at 1 µg/kg), followed by 5 mg/kg, 10 mg/kg, 20 mg/kg, and so on (increasing by 20 mg/kg increments after 20 mg/kg). The dose escalation would be stopped when rats show signs of death, and the lowest effective dose and the lowest dose at which severe adverse reactions occur would be recorded throughout the process. In this study, severe adverse reactions are defined as apnea, generalized tonic rigidity, convulsions, opisthotonus, seizures, etc.
(§4) 1.3 Evaluation indicators: the minimum effective dose; the minimum dose resulting in serious adverse reactions; the safety therapeutic index = "the minimum dose resulting in serious adverse reactions" / "the minimum effective dose".

| SMILES | selectivity ratio |
| --- | --- |
| CN(C)c1cc(CCNC(=O)C2COC2)ccc1CNC(=O)NCc1ccsc1 [Example 56] | ≤ 2 |
| COC(=O)C(C#N)=C(NCc1ccsc1)NCc1ccc(C)cc1N(C)C [Example 22] | ≤ 2 |
| Cc1ccc(NC(=O)NCc2ccns2)c(N(C)C)c1 [Example 60] | ≤ 2 |
| Cc1ccc(NC(=S)NCc2cccs2)c(N(C)C)c1 [Example 122] | > 4 |
| Cc1ccc(CNC(=S)NCc2cccs2)cc1N(C)C [Example 32] | > 4 |
| Cc1ccc(CNC(=O)NCc2nnn[nH]2)c(N(C)C)c1 [Example 46] | ≤ 2 |
| Cc1ccc(CNC(=O)NCc2ccccc2)c(N(C)C)c1 [Example 62] | 2 to 4 |
| Cc1ccc(CNC(=O)NCc2ccnn2C)c(N(C)C)c1 [Example 65] | > 4 |
| Cc1ccc(CNC(=O)NCc2cccs2)cc1N(C)C [Example 31] | > 4 |
| CN(C)c1cc(CNC(=O)NCc2ccco2)ccc1C(F)(F)F [Example 105] | > 4 |
| Cc1ccc(CNC(=O)NCc2nccs2)c(N(C)C)c1 [Example 39] | 2 to 4 |
| Cc1ccc(CNC(=S)NCc2ccnn2C)cc1N(C)C [Example 116] | 2 to 4 |
| Cc1ccc(CNC(=O)NCc2ccsc2)c(N(C)C)c1 [Example 1] | 2 to 4 |
| Cc1ccc(CNC(=O)NCc2ccoc2)cc1N(C)C [Example 35] | 2 to 4 |
| CCCc1ccc(CNC(=S)NCc2cccs2)c(N(C)C)c1 [Example 76] | > 4 |
| CCN(CC)c1cc(C)ccc1CNC(=O)NCc1ccsc1 [Example 55] | ≤ 2 |
| Cc1ccc(CSC(=O)SCc2cccs2)c(N(C)C)c1 [Example 101] | 2 to 4 |
| CN(C)c1cccc(NC(=N)Nc2cccs2)c1 [Example 95] | ≤ 2 |
| Cc1ccc(CNC(=S)NCc2ccns2)c(N(C)C)c1 [Example 66] | 2 to 4 |
| Cc1ccc(COC(=S)SCc2ccsc2)c(N(C)C)c1 [Example 100] | ≤ 2 |
| Cc1ccc(NC(=O)Nc2ccsc2)c(N(C)C)c1 [Example 13] | > 4 |
| Cc1ccc(CNC(=O)NCc2cncs2)c(N(C)C)c1 [Example 38] | 2 to 4 |
| Cc1ccc(CNC(=S)Nc2cncs2)c(N(C)C)c1 [Example 106] | > 4 |
| Cc1ccc(CNC(=S)NCc2ccccc2)cc1N(C)C [Example 86] | 2 to 4 |
| Cc1ccc(CNC(=O)NCc2cnc[nH]2)c(N(C)C)c1 [Example 64] | > 4 |
| Cc1ccc(CNC(=N)NCc2ccnn2C)cc1N(C)C [Example 109] | ≤ 2 |
| Cc1ccc(CNC(=O)NCc2ncc[nH]2)c(N(C)C)c1 [Example 43] | > 4 |
| COc1c(N(C)C)cc(CNC(=O)NCc2ccsc2)cc1N(C)C [Example 47] | ≤ 2 |
| CNC(=O)CCc1ccc(CNC(=O)NCc2ccsc2)c(N(C)C)c1 [Example 45] | 2 to 4 |
| Cc1ccc(NC(=N)Nc2ccsc2)c(N(C)C)c1 [Example 14] | ≤ 2 |

Tested on: rats
Assay: as above
Format: in vivo, SD rats
Settings: Rattus norvegicus, single intravenous injection (tail vein), LOTWR lasting for 30 seconds as criterion, class symbol, read-out: The minimum effective dose
Procedure: as §1, §2, §3, §4

| SMILES | minimal effective dose |
| --- | --- |
| CN(C)c1cc(CCNC(=O)C2COC2)ccc1CNC(=O)NCc1ccsc1 [Example 56] | ≤ 10 mg/kg |
| COC(=O)C(C#N)=C(NCc1ccsc1)NCc1ccc(C)cc1N(C)C [Example 22] | > 30 mg/kg |
| Cc1ccc(NC(=O)NCc2ccns2)c(N(C)C)c1 [Example 60] | 10 to 20 mg/kg |
| Cc1ccc(NC(=S)NCc2cccs2)c(N(C)C)c1 [Example 122] | ≤ 10 mg/kg |
| Cc1ccc(CNC(=S)NCc2cccs2)cc1N(C)C [Example 32] | ≤ 10 mg/kg |
| Cc1ccc(CNC(=O)NCc2nnn[nH]2)c(N(C)C)c1 [Example 46] | > 30 mg/kg |
| Cc1ccc(CNC(=O)NCc2ccccc2)c(N(C)C)c1 [Example 62] | 10 to 20 mg/kg |
| Cc1ccc(CNC(=O)NCc2ccnn2C)c(N(C)C)c1 [Example 65] | ≤ 10 mg/kg |
| Cc1ccc(CNC(=O)NCc2cccs2)cc1N(C)C [Example 31] | ≤ 10 mg/kg |
| CN(C)c1cc(CNC(=O)NCc2ccco2)ccc1C(F)(F)F [Example 105] | ≤ 10 mg/kg |
| Cc1ccc(CNC(=O)NCc2nccs2)c(N(C)C)c1 [Example 39] | 10 to 20 mg/kg |
| Cc1ccc(CNC(=S)NCc2ccnn2C)cc1N(C)C [Example 116] | ≤ 10 mg/kg |
| Cc1ccc(CNC(=O)NCc2ccsc2)c(N(C)C)c1 [Example 1] | ≤ 10 mg/kg |
| Cc1ccc(CNC(=O)NCc2ccoc2)cc1N(C)C [Example 35] | 20 to 30 mg/kg |
| CCCc1ccc(CNC(=S)NCc2cccs2)c(N(C)C)c1 [Example 76] | ≤ 10 mg/kg |
| CCN(CC)c1cc(C)ccc1CNC(=O)NCc1ccsc1 [Example 55] | ≤ 10 mg/kg |
| Cc1ccc(CSC(=O)SCc2cccs2)c(N(C)C)c1 [Example 101] | > 30 mg/kg |
| CN(C)c1cccc(NC(=N)Nc2cccs2)c1 [Example 95] | ≤ 10 mg/kg |
| Cc1ccc(CNC(=S)NCc2ccns2)c(N(C)C)c1 [Example 66] | ≤ 10 mg/kg |
| Cc1ccc(COC(=S)SCc2ccsc2)c(N(C)C)c1 [Example 100] | > 30 mg/kg |
| Cc1ccc(NC(=O)Nc2ccsc2)c(N(C)C)c1 [Example 13] | ≤ 10 mg/kg |
| Cc1ccc(CNC(=O)NCc2cncs2)c(N(C)C)c1 [Example 38] | 10 to 20 mg/kg |
| Cc1ccc(CNC(=S)Nc2cncs2)c(N(C)C)c1 [Example 106] | ≤ 10 mg/kg |
| Cc1ccc(CNC(=S)NCc2ccccc2)cc1N(C)C [Example 86] | ≤ 10 mg/kg |
| Cc1ccc(CNC(=O)NCc2cnc[nH]2)c(N(C)C)c1 [Example 64] | ≤ 10 mg/kg |
| Cc1ccc(CNC(=N)NCc2ccnn2C)cc1N(C)C [Example 109] | ≤ 10 mg/kg |
| Cc1ccc(CNC(=O)NCc2ncc[nH]2)c(N(C)C)c1 [Example 43] | 10 to 20 mg/kg |
| COc1c(N(C)C)cc(CNC(=O)NCc2ccsc2)cc1N(C)C [Example 47] | ≤ 10 mg/kg |
| CNC(=O)CCc1ccc(CNC(=O)NCc2ccsc2)c(N(C)C)c1 [Example 45] | > 30 mg/kg |
| Cc1ccc(NC(=N)Nc2ccsc2)c(N(C)C)c1 [Example 14] | ≤ 10 mg/kg |
